Here are results for 21 compounds from patent US9000028B2, “Indole and indazole compounds as an inhibitor of cellular necrosis” (LG Life Sciences Ltd., priority 2007, dated 2015).

Assay [1] relates to brain cells (SK-N-MC). The experiment in a line: Protective effect when tBHP was treated on brain cells (LDH assay). It counts as cell-based. To be noted: Homo sapiens, tBHP 400 uM, 6 h. Here is the method: In order to assess the protective effect on brain cells, 2×10^4 brain cells were distributed into the 96-well plate using DMEM media (Gibco, 10% FBS), and incubated for 24 h. The Example compounds were serially diluted by 3-fold to the final concentration of 30, 10, 3, 1, 0.3, 0.1 uM, by which each well was treated for 1 h. Cells were treated with tBHP at the final concentration of 400 uM, and incubated for 6 h. 50 uL of media was taken from each well to proceed with LDH assay (Promega). In LDH assay, 50 uL of media was mixed with 50 uL of assay solution. After the reaction for 30 min at room temperature, absorbance was measured at 490 nm using SpectraMax (Molecular Device).

For assay [2], the system named is primary hepatocytes isolated from rats. Nature of the assay: Hepatocyte protective effect against substances deriving hepatocyte toxicity (WST-1 viability). It is filed as cell-based. Conditions: doxorubicin, 24-48 h, read-out: EC50, cell protective effects against doxorubicin in hepatocytes. The method, boiled down: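 Hepatocytes from two-step collagenase perfusion (≥90% viable) seeded on collagen, pretreated 30 min with compound (5-step 2- or 3-fold dilutions from 30, 10 or 1 uM; 0.2% DMSO), then exposed to hepatotoxic agents. WST-1 absorbance at 440 nm after 24-48 h; EC50 = concentration giving 50% of maximal protection.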

The test system of assay [3] is kidney cells (LLC-PK1). Nature of the assay: Protective effect when tBHP was treated on kidney cells (SRB method). It is filed as cell-based. Conditions: Sus scrofa, tBHP 400 uM, 6 h. Here is the method:
(§1) In order to determine the protective effect on pancreatic cells, Linm5F cells, a sort of the beta cells, were distributed into the 96-well plate in the amount of 2×10^4 cells/well, and incubated for 24 h. The Example compounds were serially diluted by 3-fold to the final concentration of 30, 10, 3, 1, 0.3, 0.1 uM, by which each well was treated for 1 h. Cells were treated with tBHP at the final concentration of 400 uM, and further incubated for 5 h. Protective effects were determined using SRB (Sulforhodamine B Protein) method in which total amount of cellular protein is stained. Briefly, cells were incubated for 5 h, 50 uL of 4% formaldehyde solution was added to each well to fix the cells, and stored for about 30 min at room temperature. After discarding the media, each well was washed with distilled water 2-3 times, and the plate was dried in an oven at 50° C. 50 uL of SRB solution was added to each well, and placed for about 30 min at room temperature. After removing SRB solution, the plate was washed with 1% acetic acid solution 2-3 times. […]
In order to determine the protective effect on kidney cells, 4×10^4 cells were distributed into each well, and incubated for 24 h. […] Protective effect of each compound was determined using the same SRB method as in Linm5F of above mentioned 2).
Background: In SRB staining, fixed cells bind dye roughly in proportion to their protein.

Assay [4] relates to pancreatic cells (Linm5F). Nature of the assay: Protective effect when tBHP was treated on pancreatic cells (SRB method). It is filed as cell-based. Conditions: tBHP 400 uM, 5 h. The protocol:
(§2) In order to determine the protective effect on pancreatic cells, Linm5F cells, a sort of the beta cells, were distributed into the 96-well plate in the amount of 2×10^4 cells/well, and incubated for 24 h. The Example compounds were serially diluted by 3-fold to the final concentration of 30, 10, 3, 1, 0.3, 0.1 uM, by which each well was treated for 1 h. Cells were treated with tBHP at the final concentration of 400 uM, and further incubated for 5 h. Protective effects were determined using SRB (Sulforhodamine B Protein) method in which total amount of cellular protein is stained. Briefly, cells were incubated for 5 h, 50 uL of 4% formaldehyde solution was added to each well to fix the cells, and stored for about 30 min at room temperature. After discarding the media, each well was washed with distilled water 2-3 times, and the plate was dried in an oven at 50° C. 50 uL of SRB solution was added to each well, and placed for about 30 min at room temperature. After removing SRB solution, the plate was washed with 1% acetic acid solution 2-3 times. After drying the plate in an oven at 50° C., 100 uL of 10 mM Tris was added to elute SRB which was staining the intracellular protein.

In assay [5] the test system is chondrocytes. Nature of the assay: Protective effect when tBHP was treated on chondrocytes (SRB method). It counts as cell-based, SD rats. To be noted: Chondrocyte; tBHP 500 uM, 3 h; rat chondrocytes. Here is the method:
as §1
In order to determine the protective effect on chondrocytes, chondrocytes were isolated from 2 hind legs of 16 week-old SD rats (body weight: 450-460 g). […] Protective effect of each compound was determined using the same SRB staining method as in Linm5F of above mentioned 2).

In assay [6] the test system is cardiac cells (H9C2, white rat cardiomyocyte). The experiment in a line: Protective effect when tBHP was treated on cardiac cells (SRB method). Conditions: tBHP 400 uM, 2 h. It is filed as cell-based. The protocol: as §2
In order to assess the protective effect on cardiac cells, H9C2 cells were distributed in the amount of 1.5×10^4 cells/well, and incubated for 24 h. The Example compounds were serially diluted by 3-fold to the final concentration of 30, 10, 3, 1, 0.3, 0.1 uM, by which each well was treated for 45 min. Cells were treated with tBHP at the final concentration of 400 uM, and incubated for 2 h. Protective effect of each compound was determined using the same SRB method as in Linm5F of above mentioned 2).

Where two headings read alike, the source gives them in different places.

For orientation: EC50 means the concentration needed to bring the measured effect to its halfway point. For `O=C1CN(Cc2cc(NC3CCOCC3)c3[nH]c(-c4ccccc4)cc3c2)CCN1` [Example 37, (Tetrahydropyran-4-yl)-[2-phenyl-5-(2-oxo-piperazin-4-yl)methyl-1H-indol-7-yl]amine], the EC50 in assay [1] was at most 100 nM; in assay [2] (Rattus norvegicus, Hepatocyte), 150 nM.
The like results for `Cc1cc(N(C)C2CCOCC2)c2[nH]c(-c3ccccc3)cc2c1` [Example 55, (Tetrahydropyran-4-yl)-(5-methyl-2-phenyl-1H-indol-7-yl)-methyl-amine] were, in that order, at most 100 nM and 300 nM.
`O=S1(=O)CCN(Cc2cc(NCC3CCOCC3)c3[nH]c(-c4ccccc4)cc3c2)CC1` [Example 56, (Tetrahydropyran-4-ylmethyl)-[2-phenyl-5-(1,1-dioxo-thiomorpholin-4-yl)methyl-1H-indol-7-yl]amine]: the half-maximal effective concentration (EC50) in assay [3] is 660 nM; in assay [4], at most 100 nM; in assay [5], at most 100 nM; in assay [2] (Rattus norvegicus, Hepatocyte), 130 nM.
Consider `O=C1CN(Cc2cc(NCC3CCOCC3)c3[nH]c(-c4ccccc4)cc3c2)CCN1` [Example 63, (Tetrahydropyran-4-ylmethyl)-[2-phenyl-5-(2-oxo-piperazin-4-yl)methyl-1H-indol-7-yl]amine], for which the EC50 in assay [1] was at most 100 nM; in assay [5] it was at most 100 nM; in assay [2] (Rattus norvegicus, Hepatocyte) it was 170 nM.
`O=S1(=O)CCN(Cc2cc(NCC3CCOCC3)c3[nH]c(-c4ccccc4)c(Br)c3c2)CC1` [Example 74, (Tetrahydropyran-4-ylmethyl)-(3-bromo-5-(1,1-dioxo-thiomorpholin-4-yl)methyl-2-phenyl-1H-indol-7-yl)-amine]: the EC50 in assay [6] was at most 200 nM; in assay [2] (Rattus norvegicus, Hepatocyte), 350 nM.
The like results for `CC(=O)Nc1ccc(-c2cc3cc(N4CCS(=O)(=O)CC4)cc(N(C4CCCC4)C4CCCC4)c3[nH]2)cc1` [Example 86, Dicyclopentyl-{5-(1,1-dioxo-thiomorpholin-4-yl)-2-[4-(acetyl)aminophenyl]-1H-indol-7-yl}-amine] were, in that order, 500 nM and 1440 nM.
In the same order, the values of `CS(=O)(=O)N1CCC(Nc2cc(CN3CCS(=O)(=O)CC3)cc3cc(-c4ccccc4)[nH]c23)CC1` [Example 97, (5-(1,1-Dioxo-thiomorpholin-4-yl)methyl-2-phenyl-1H-indol-7-yl)-(1-methanesulfonyl-piperidin-4-yl)-amine] are at most 200 nM and 90 nM.
With `COC(=O)CNc1cc(F)cc2cc(-c3ccccc3)[nH]c12` [Example 106, 2-(5-Fluoro-2-phenyl-1H-indol-7-yl)amino-acetic acid methyl ester], the EC50 was at most 100 nM in assay [4] and 450 nM in assay [2] (Rattus norvegicus, Hepatocyte).
As to `O=C(O)CNc1cc(F)cc2cc(-c3ccccc3)[nH]c12` [Example 107, 2-(5-Fluoro-2-phenyl-1H-indol-7-yl)amino-acetic acid], the EC50 in assay [4] was at most 100 nM; in assay [2] (Rattus norvegicus, Hepatocyte), 350 nM.
For the compound `Cc1ccc(Nc2cc(Cl)cc3c(-c4ccccc4)c[nH]c23)nc1` [Example 115, (5-Chloro-3-phenyl-1H-indol-7-yl)-(5-methyl-pyridin-2-yl)-amine], the EC50 in assay [1] is 260 nM; in assay [2] (Rattus norvegicus, Hepatocyte), above 2000 nM.
Regarding `O=C(O)[C@@H]1CCCN1C(=O)c1cc(NC2CCCC2)c2[nH]c(-c3ccccc3)cc2c1` [Example 117, (2S)-1-(7-cyclopentylamino-2-phenyl-1H-indole-5-carbonyl)-pyrrolidine-2-carboxylic acid], the EC50 was at most 200 nM in assay [6] and 260 nM in assay [2] (Rattus norvegicus, Hepatocyte).
On to `O=S1(=O)CCN(CCc2cccc(-c3cc4cc(Cl)cc(NC5CCOCC5)c4[nH]3)c2)CC1` [Example 152, {5-Chloro-2-[3-(1,1-dioxo-thiomorpholin-4-yl)ethylphenyl]-1H-indol-7-yl}-(tetrahydropyran-4-yl)-amine], for which the EC50 in assay [2] (Rattus norvegicus, Hepatocyte) stood at 240 nM.
With `c1cc(NC2CCCC2)c2[nH]ncc2c1` [Example 153, Cyclopentyl-(1H-indazol-7-yl)-amine], the EC50 in assay [2] (Rattus norvegicus, Hepatocyte) was found to be 2100 nM.
On the same count and under the same terms, to `c1cc(NC2CCOCC2)c2[nH]ncc2c1` [Example 154, (Tetrahydropyran-4-yl)-(1H-indazol-7-yl)-amine] belongs 4200 nM; to `Cc1cc(NC2CCCC2)c2[nH]ncc2c1` [Example 155, Cyclopentyl-(5-methyl-1H-indazol-7-yl)-amine], 1300 nM.
In the case of `Cc1cc(NC2CCOCC2)c2[nH]ncc2c1` [Example 156, (5-Methyl-1H-indazol-7-yl)-(tetrahydropyran-4-yl)-amine], the EC50 in assay [2] (Rattus norvegicus, Hepatocyte) was above 10000 nM.
Still for that read-out and setting: to `COc1ccc(-c2n[nH]c3c(NC4CCCC4)cccc23)cc1` [Example 157, Cyclopentyl-[3-(4-methoxyphenyl)-1H-indazol-7-yl)-amine] belongs 900 nM.
Consider `COc1ccc(-c2n[nH]c3c(NC4CCOCC4)cccc23)cc1` [Example 158], for which, in assay [2] (rat primary hepatocytes), the EC50 worked out at 2770 nM.
In the case of `COc1ccc(-c2n[nH]c3c(NCC4CCOCC4)cccc23)cc1` [Example 159, [3-(4-Methoxyphenyl)-1H-indazol-7-yl)-(tetrahydropyran-4-ylmethyl)-amine], the concentration for a half-maximal effect (EC50) in assay [2] (Rattus norvegicus, Hepatocyte) was determined as 110 nM.
Turning to `O=S1(=O)CCN(Cc2cc(NC3CCOCC3)c3[nH]cc(-c4ccccc4)c3c2)CC1` [Example 161, (Tetrahydropyran-4-yl)-[5-(1,1-dioxo-thiomorpholin-4-yl)methyl-3-phenyl-1H-indol-7-yl)-amine], the EC50 in assay [2] (Rattus norvegicus, Hepatocyte) was found to be 360 nM.
The same measure, in the same setting: to `Brc1c(-c2ccccc2)[nH]c2c(NC3CCOCC3)cc(CN3CCOCC3)cc12` [Example 162, (Tetrahydropyran-4-yl)-[3-bromo-5-(morpholin-4-yl)methyl-2-phenyl-1H-indol-7-yl]-amine] belongs 700 nM.
